The source of these data is the supplement of paper PMC8967900.

Among the test systems are KOPN-8; COG-LL-402h; MHH-CALL-4; P30-OHKUBO; CCRF-HSB2; TANOUE; DND-41; COG-LL-317; P12-ICHIKAWA; MOLT-16; PF-382; COG-LL-355h; REH; COG-LL-394h; MHH-CALL-3; COG-LL-319h; RPMI-8402; SUP-B15; KASUMI-10; SEM cells.
Common to all, as to test: selective drug sensitivity score (sDSS, relative to normal bone marrow) (sDSS (score)); higher = more potent and effective on the cell line relative to normal bone marrow cells
Conditions in all cases: 72 h
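Note: ALL cell lines in 384-well plates, five doses spanning 10,000-fold, each plate scaled between vehicle and 100 µmol/L benzalkonium chloride controls, sDSS an adapted area-under-curve metric.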

Consider `CON(C)C(=O)N1N=C(c2cc(F)ccc2F)S[C@@]1(CCCN)c1ccccc1` [Filanesib] (top concentration 1000 nM), for which the “selective drug sensitivity score” value in the test with KOPN-8 was 9.8; with COG-LL-402h, 17.7; in the test with MHH-CALL-4 it was 7.4; with P30-OHKUBO, 9.9; with CCRF-HSB2, 22.5; with TANOUE, -6.5. Moreover, the “selective drug sensitivity score” value was 6.3 in the test with DND-41; 20.8 in the test with COG-LL-317; 15.9 in the test on P12-ICHIKAWA; 21.2 in the test with MOLT-16; 12.5 with PF-382; 1.7 in the test on COG-LL-355h. Also, the “selective drug sensitivity score” value turned out to be 11.9 with REH; 8.7 in the test on COG-LL-394h; 5.2 in the test with MHH-CALL-3; 23.4 with COG-LL-319h; 18.9 in the test on RPMI-8402; 21.6 in the test on SUP-B15. In addition, the “selective drug sensitivity score” value with KASUMI-10 stood at 14.2; with SEM cells it was 20.3.

In the case of `CN(Cc1cnc2nc(N)nc(N)c2n1)c1ccc(C(=O)N[C@@H](CCC(=O)O)C(=O)O)cc1` [Methotrexate] (top concentration 5000 nM), the “selective drug sensitivity score” value with KOPN-8 is -0.12; in the test with COG-LL-402h, 2.38; in the test on MHH-CALL-4 it was 9.68; in the test with P30-OHKUBO, -0.42; with CCRF-HSB2, 14; with TANOUE, 15.3. Also, the “selective drug sensitivity score” value is 15 in the test on DND-41; 9.18 with COG-LL-317; 15.8 with P12-ICHIKAWA; 15.7 in the test on MOLT-16; 11.7 with PF-382; -0.42 in the test with COG-LL-355h. For the same compound, the “selective drug sensitivity score” value is -0.22 with REH; 1.68 with COG-LL-394h; 10.4 with MHH-CALL-3; 20.1 with COG-LL-319h; 20.2 in the test on RPMI-8402; -0.32 with SUP-B15. Also, the “selective drug sensitivity score” value with KASUMI-10 was 9.88; with SEM cells it was -0.42.

As for `CC[C@@]1(O)C(=O)OCc2c1cc1n(c2=O)Cc2cc3c(CN(C)C)c(O)ccc3nc2-1` [Topotecan] (top concentration 10000 nM), the “selective drug sensitivity score” value in the test on KOPN-8 is 23.4; in the test with COG-LL-402h, 17.7; in the test with MHH-CALL-4, 16.5; in the test on P30-OHKUBO it was 18.9; in the test on CCRF-HSB2, 23.3; in the test on TANOUE, -3.62. Further, the “selective drug sensitivity score” value in the test on DND-41 was found to be 21.4; in the test with COG-LL-317, 28; with P12-ICHIKAWA it was 19.2; in the test with MOLT-16, 21.5; in the test with PF-382, 18.2; in the test on COG-LL-355h, 10.9. The “selective drug sensitivity score” value in the test on REH worked out at 22.2; with COG-LL-394h it was 11.4; in the test with MHH-CALL-3 it was 12.2; with COG-LL-319h, 18.6; in the test on RPMI-8402, 19.4; with SUP-B15, 22.4. The figures for the “selective drug sensitivity score” value in the test with KASUMI-10 and in the test on SEM cells were 18 and 20.3, respectively.

Regarding `O=c1[nH]c(=O)n([C@H]2C[C@H](O)[C@@H](CO)O2)cc1C(F)(F)F` [Trifluridine] (top concentration 10000 nM), the “selective drug sensitivity score” value in the test with KOPN-8 is 17.4; in the test with COG-LL-402h, 8.26; in the test on MHH-CALL-4, 2.26; in the test with P30-OHKUBO, 11.9; with CCRF-HSB2, -1.84; in the test with TANOUE it was -1.84. Also, the “selective drug sensitivity score” value in the test on DND-41 came to 9.76; with COG-LL-317, 15.6; in the test with P12-ICHIKAWA, 15.4; in the test on MOLT-16, 15.1; with PF-382, 4.16; with COG-LL-355h, 0.06. Also, the “selective drug sensitivity score” value with REH was found to be 15.3; with COG-LL-394h, 2.66; in the test with MHH-CALL-3, 6.56; with COG-LL-319h, 20.2; in the test on RPMI-8402 it was 15.5; in the test with SUP-B15 it was 15.4. Also, the “selective drug sensitivity score” value in the test with KASUMI-10 was determined as 6.36; in the test on SEM cells, 14.5.

Consider `Cc1sc2c(c1C)C(c1ccc(Cl)cc1)=N[C@@H](CC(=O)NCCCCNC(=O)COc1cccc3c1C(=O)N(C1CCC(=O)NC1=O)C3=O)c1nnc(C)n1-2` (stereo not given in full) [dBET1] (top concentration 10000 nM), for which the “selective drug sensitivity score” value was 7.82 in the test on KOPN-8; 2.22 in the test with COG-LL-402h; 5.42 in the test on MHH-CALL-4; 2.82 in the test with P30-OHKUBO; 2.12 with CCRF-HSB2; -17.5 with TANOUE. Besides, the “selective drug sensitivity score” value with DND-41 is -0.88; in the test on COG-LL-317 it was 2.42; in the test on P12-ICHIKAWA it was -11.6; in the test on MOLT-16 it was 1.42; in the test on PF-382, -8.28; in the test on COG-LL-355h it was 6.22. For the same compound, the “selective drug sensitivity score” value was -1.28 with REH; -2.78 in the test with COG-LL-394h; -1.88 in the test on MHH-CALL-3; 3.62 in the test with COG-LL-319h; -6.68 in the test on RPMI-8402; 0.52 in the test with SUP-B15. Besides, the “selective drug sensitivity score” value with KASUMI-10 is 2.32; in the test on SEM cells, -3.38.
